# Source: patent publication US20230123334A1, “AMINO LIPID COMPOUND, PREPARATION METHOD THEREFOR, AND APPLICATION THEREOF” (SHENZHEN SHENXIN BIOTECHNOLOGY CO., LTD., priority 2020, published 2023)
# Tested on: HEK293 cells
# Experiment: Preliminary screening as DNA vectors, GFP transfection of HEK293 cells
# Format: cell-based
# Details: amino lipid/DOPE liposome with 75 ng plasmid DNA (psin-EGFP-IRES-Puro); number of GFP-expressing cells divided by total nuclei (Hoechst)
# Summary of the method: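 Lipid + DOPE liposomes (NaOAc, pH 5.6) complexed w/ 75 ng psin-EGFP-IRES-Puro, 30 min RT; added to 3-5×10^4 HEK293/well, 37° C. Hoechst 0.2 μg/mL at 20-24 h, imaged after further 20-24 h. Efficiency = GFP+ cells / total nuclei.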
smiles,measurement,value
CCCCCCCCCCCSc1nc(NCCCN2CCOCC2)nc(SCCCCCC)n1 [S6S11 D8],Absolute DNA transfection efficiency in HEK293 cells,4.5%
CCCCCCCCCCCCCCCCCCSc1nc(NCCCCCCCCCCCC)nc(NCCN2CCOCC2)n1 [S18N12 D2],Absolute DNA transfection efficiency in HEK293 cells,0.7%
CCCCCCCCCCCCCCCNc1nc(NCCN2CCCC2)nc(SCCCCCCCCCCCCCCC)n1 [S15N15 D3],Absolute DNA transfection efficiency in HEK293 cells,0.8%
CCCCCCCCCCCCCCSc1nc(NCCCN(C)C)nc(N(CCCCCCCCCCCC)CCCCCCCCCCCC)n1 [S14^2N12 D6],Absolute DNA transfection efficiency in HEK293 cells,0.2%
CCCCCCCCCCCCCCCCSc1nc(NCCCCCCC)nc(NCCN2CCOCC2)n1 [S16N7 D2],Absolute DNA transfection efficiency in HEK293 cells,16.6%
CCCCCCCCCCCCCCCNc1nc(NCCN2CCCCC2)nc(SCCCCCCCCCCCC)n1 [S12N15 D4],Absolute DNA transfection efficiency in HEK293 cells,1.0%
CCCCCCCCNc1nc(NCCN2CCCCC2)nc(SCCCCCCCC)n1 [S8N8 D4],Absolute DNA transfection efficiency in HEK293 cells,2.9%
CCCCCCCCCCCNc1nc(NCCN2CCOCC2)nc(SCCCCCCCCCC)n1 [S10N11 D2],Absolute DNA transfection efficiency in HEK293 cells,1.5%
CCCCCCCCCCCCCCCCCCSc1nc(NCCN2CCCCC2)nc(N(CCCCCCCCCCCC)CCCCCCCCCCCC)n1 [S18^2N12 D4],Absolute DNA transfection efficiency in HEK293 cells,0.0%
CCCCCCCCCCCCCCSc1nc(NCCCCCCCC)nc(NCCN2CCOCC2)n1 [S14N8 D2],Absolute DNA transfection efficiency in HEK293 cells,12.9%
CCCCCCCCCCCCCCCCNc1nc(NCCCN(C)C)nc(SCCCCCCCC)n1 [S8N16 D6],Absolute DNA transfection efficiency in HEK293 cells,3.7%
CCCCCCCCCCCCCNc1nc(NCCCN2CCN(C)CC2)nc(SCCCCCCC)n1 [S7N13 D9],Absolute DNA transfection efficiency in HEK293 cells,36.9%
CCCCCCCCCCCSc1nc(NCCCN2CCOCC2)nc(SCCCCCCCC)n1 [S8S11 D8],Absolute DNA transfection efficiency in HEK293 cells,15.3%
CCCCCCCCCCCCCCSc1nc(NCCCN(C)C)nc(SCCCCCC)n1 [S6S14 D6],Absolute DNA transfection efficiency in HEK293 cells,21.9%
CCCCCCCCSc1nc(NCCCCCCC)nc(NCCCN(C)C)n1 [S8N7 D6],Absolute DNA transfection efficiency in HEK293 cells,8.5%
CCCCCCCCCCCCCCCCNc1nc(NCCCN2CCOCC2)nc(SCCCCCCCCCCCCCCCC)n1 [S16N16 D8],Absolute DNA transfection efficiency in HEK293 cells,0.0%
CCCCCCCCCCCCCCCNc1nc(NCCN2CCN(C)CC2)nc(SCCCCCCCCC)n1 [S9N15 D5],Absolute DNA transfection efficiency in HEK293 cells,16.1%
CCCCCCCSc1nc(NCCCCCC)nc(NCCN2CCCC2)n1 [S7N6 D3],Absolute DNA transfection efficiency in HEK293 cells,34.7%
CCCCCCCCCCCCSc1nc(NCCN2CCN(C)CC2)nc(SCCCCCCCC)n1 [S8S12 D5],Absolute DNA transfection efficiency in HEK293 cells,24.8%
CCCCCCCCCCCCCCCCCCSc1nc(NCCN2CCCC2)nc(N(CCCCCCCCCCCC)CCCCCCCCCCCC)n1 [S18^2N12 D3],Absolute DNA transfection efficiency in HEK293 cells,0.2%
CCCCCCCCCCCCCCCCNc1nc(NCCN(CC)CC)nc(SCCCCCCCCCC)n1 [S10N16 D7],Absolute DNA transfection efficiency in HEK293 cells,4.8%
CCCCCCCCCCCCN(CCCCCCCCCCCC)c1nc(NCC2CCN(C)CC2)nc(SCCCCCCCCCC)n1 [S10^2N12 D10],Absolute DNA transfection efficiency in HEK293 cells,3.3%
CCCCCCCCCCCSc1nc(NCC2CCN(C)CC2)nc(SCCCCCCCC)n1 [S8S11 D10],Absolute DNA transfection efficiency in HEK293 cells,42.4%
CCCCCCCCSc1nc(NCCCCCCC)nc(NCCN(CC)CC)n1 [S8N7 D7],Absolute DNA transfection efficiency in HEK293 cells,1.4%
CCCCCCCCCCCCCCCSc1nc(NCCCCCCCCCCCCC)nc(NCCN2CCOCC2)n1 [S15N13 D2],Absolute DNA transfection efficiency in HEK293 cells,0.0%
CCCCCCCCCCCCSc1nc(NCCCN2CCN(C)CC2)nc(SCCCCCCCC)n1 [S8S12 D9],Absolute DNA transfection efficiency in HEK293 cells,3.5%
CCCCCCCCCSc1nc(NCC2CCN(C)CC2)nc(SCCCCCCCC)n1 [S8S9 D10],Absolute DNA transfection efficiency in HEK293 cells,27.9%
CCCCCCCCCCCCCCCCCCSc1nc(NCCCCCCC)nc(NCCCN2CCOCC2)n1 [S18N7 D8],Absolute DNA transfection efficiency in HEK293 cells,3.9%
CCCCCCCCCCCCCCCNc1nc(NCCCN(C)C)nc(SCCCCCCCCCCCC)n1 [S12N15 D6],Absolute DNA transfection efficiency in HEK293 cells,0.9%
